The experiment concerns MRSA. The experiment is described as follows: In vivo MRSA challenge (intraperitoneal infection). On the set-up: species or system BALB/c mice. The following applies: mice, 8 h post infection. As to the method: Three groups of BALB/c mice (8 mice per group) were infected by intraperitoneal (i.p.) injection with 5×10^7 MRSA in 100 µl sterile PBS [16], [17]. The first treatment group was injected i.p. with 100 µl of 100 µM THAM trisphenylguanide in PBS immediately after infection. The second group was injected i.p. with 100 µl of 100 µM THAM trisphenylguanide one hour post-infection. The control group was injected with 100 µl PBS. At eight hours post-infection, all mice were euthanized. An intraperitoneal lavage using 10 ml PBS was performed to recover bacteria within the peritoneal cavity and plated at multiple dilutions on TSA plates. The heart and kidney were removed for evaluation of systemic infection. Briefly, tissues were weighed, homogenized, and plated at multiple dilutions on TSA plates. TSA plates were incubated overnight at 37°C at 5% CO2 and CFU enumerated the next day.

[1] abbreviates: 100 µM i.p. one hour after MRSA infection.

From paper PMC4026384, “Antibacterial Activity of THAM Trisphenylguanide against Methicillin-Resistant Staphylococcus aureus” (PLoS ONE, 2014) come the findings set out here.

In the case of `N=C(NCCCCCCNc1nc(NCCCCCCNC(=N)Nc2ccccc2)nc(NCCCCCCNC(=N)Nc2ccccc2)n1)Nc1ccccc1` [THAM-3ΦG, Trishexylaminomelamine trisphenylguanide], for the setting “100 µM i.p. immediately after MRSA challenge, versus PBS”, the “reduction in bacterial burden in both organs (kidneys, heart) and IP lavage” value is “approximately 3 log”. Besides, under setting [1], the “reduction of mean CFUs in IP lavages” value was 2 fold, the “reduction of mean CFUs in heart” value is given as 3 fold and the “reduction of mean CFUs in kidneys” value was determined as 20 fold.
